Reference: patent publication US20220168430A1, “THERAPEUTIC METHODS FOR TREATING HEPATITIS B” (priority 2019, published 2022)
Values joined by “and” are separate entries in the source; they are usually repeats but may differ in a detail not shown here. Equal values may be shown once.

How the values were obtained:
HBV DNA [1] = test: HBV DNA in culture supernatants of HBV-infected PHH by qPCR (Examples 15-17); type: cell-based, HBV genotype D; primary human hepatocytes; conditions: Hepatitis B virus, determined in an earlier separate experiment
HBV DNA [2] = test: as above; type: cell-based, HBV genotype D; primary human hepatocytes
Method: The day PHH seeding date was defined as day 0.
The PHH were infected with 400 HBV GE/cell of D type HBV on day 1.
The test articles were further diluted with the culture medium to the final test concentrations.
All the test articles were further diluted 100 times with the culture medium. The final concentration of DMSO in the culture medium was […].
Four two-way combinations were performed on a 5×5 matrix, in triplicate plates. Transfection reagent was present in all wells.
DNA in the culture supernatants harvested on days 8 was isolated with QIAamp 96 DNA Blood Kit (Qiagen-51162). For each sample, 100 μl of each culture supernatant was used to extract DNA. The DNA was eluted with 180 μl of AE. HBV DNA in the culture supernatants was quantified by quatitative PCR using well-established and commonly used procedures. Percent inhibition of HBV DNA was calculated with the formula below:
% Inh. HBV DNA=[1−value of sample/AVG. value of Medium control]×100.
Results of double combination studies were analyzed using MacSynergy II software (Prichard and Shipman, 1992).

HBV DNA [3] = test: HBV DNA by branched DNA assay in HepG2.2.15 cells, two-compound combinations (Examples 13-14); type: cell-based, HBV; HepG2.2.15 (human hepatoblastoma); conditions: for Average percent inhibition versus negative control: Cmpd 2 μM: 0.01, 0.0032, 0.001, 0.0003, 0.0001, 0, n = 4; for Additive percent inhibition versus negative control: Compound (2) μM: 0.01, 0.0032, 0.001, 0.0003, 0.0001, 0
Method: In vitro combination studies were conducted using the method of Prichard and Shipman (Prichard M N, and Shipman C Jr., Antiviral Research, 1990, 14(4-5), 181-205; and Prichard M N, et. al., MacSynergy II). The HepG2.2.15 cell culture system is a cell line derived from human hepatoblastoma HepG2 cells, which have been stably transfected with the adw2-subtype HBV genome as previously explained in Sells et al. (Proc. Natl. Acad. Sci. U. S. A, 1987. Vol 84:1005-1009). HepG2.2.15 cells secrete Dane-like viral particles, produce HBV DNA, and produce the viral proteins, HBeAg and HBsAg.
Although inhibition of HBV DNA, RNA and proteins can be determined in the presence of these inhibitors, we used the branched DNA assay due to its ability to quantitatively measure the level HBV DNA.
Detection of HBV DNA. The branched DNA assay (bDNA) was used to determine the effect of compound combinations on HBV DNA. HepG2.2.15 (10,000 cells/well) were cultured in DMEM medium plus supplements as described above. The next day, the cells were replenished with fresh medium followed by the addition of Inhibitor A and B, both were dissolved in 100% DMSO. The microtiter cell plates were incubated for a total duration of 6 days at 37° C. without replenishing media or compound. The serial dilutions spanned concentration ranges respective to the EC50 value of each compound. In addition to combination testing of the compounds, both inhibitors A and B were also tested singly.
The level of bDNA present in the inhibitor-treated supernatant wells was measured using a Quantigene 2.0 bDNA assay kit (Affymetrix, Santa Clara, Calif.) with HBV specific custom probe set (genotype D ayw; DF-10739) and manufacturer's instructions after performing a proteinase K digestion in lysis. The plates were read using a Victor luminescence plate reader (PerkinElmer Model 1420 Multilabel counter) and the RLU data generated from each well was calculated as inhibition of the untreated control wells. The data was analyzed using the interpretive guidelines established by Prichard and Shipman combination model using the MacSynergy II program (Prichard M N, Shipman C Jr. Antiviral Research, 1990. Vol 14(4-5):181-205; Prichard M N, Aseltine KR, and Shipman, C. MacSynergy II. University of Michigan 1992) to determine whether the combinations were synergistic, additive or antagonistic using the interpretive guidelines established by Prichard and Shipman as follows: synergy volumes <25 μM2% (log volume <2) at 95% CI=probably insignificant; 25-50 (log volume >2 and <5)=minor but significant 50-100 (log volume >5 and <9)=moderate, may be important in vivo; Over 100 (log volume >9)=strong synergy, probably important in vivo; volumes approaching 1000 (log volume >90)=unusually high, check data. The RLU data from the single compound treated cells were analyzed using XL-Fit module in Microsoft Excel to determine EC50 values using a 4-parameter curve fitting algorithm.

HBsAg = HBsAg in culture supernatants of HBV-infected PHH by ELISA (Examples 15-17); conditions: for AVERAGE % INHIBITION: HBsAg
Method: All the test articles were further diluted 100 times with the culture medium. The final concentration of DMSO in the culture medium was 2%.
HBsAg in the culture supernatants harvested on days 8 was measured using the HBsAg/ELISA kit (Autobio) according to the manual. The samples were diluted 4-fold with PBS to get the signal in the range of the standard curve. Percent inhibition of HBsAg was calculated with the following formula:
% Inh. HBsAg=[1−HBsAg quantity of sample/HBV quantity of DMSO control]×100

`C=C1[C@H](CO)[C@@H](O)C[C@@H]1n1cnc2c(=O)[nH]c(N)nc21` [ETV, entecavir] was tested, and the EC50 (HBV DNA [1]) was 0.015 nM, the “SYNERGY PLOT (99.9%) Bonferroni Adj. 98% (HBV DNA)” value (HBV DNA [2]; Compound 1 0.00 μg/mL, ETV nM by row: r41 0.07000, r42 0.02300, r43 0.00780, r44 0.00260, r45 0.00086, r46 0.00000) was 0 and the inhibition at 860 fM (HBV DNA [2]; Hepatitis B virus, HBV DNA, ETV 0.00086 nM alone) was -5.71%. It also gave an inhibition at 2.6 pM (HBV DNA [2]; Hepatitis B virus, HBV DNA, ETV 0.00260 nM alone) of 8.16%, an inhibition at 23 pM (HBV DNA [2]; Hepatitis B virus, HBV DNA, ETV 0.02300 nM alone) of 62.3% and an inhibition at 70 pM (HBV DNA [2]; Hepatitis B virus, HBV DNA, ETV 0.07000 nM alone) of 85.7%. For the same compound, the inhibition at 7.8 pM (HBV DNA [2]; Hepatitis B virus, HBV DNA, ETV […] alone) was 24.2%, the “MacSynergy Volume Calculations, 99.99% confidence interval (Bonferroni Adj. 96%)” value (HBV DNA [3]) was 0.00 and the “Average percent inhibition versus negative control” value (HBV DNA [3]; ETV 0.0001 μM) was −21.2%. For the same compound, the “Additive percent inhibition versus negative control” value (HBV DNA [3]; ETV 0.0001 μM) was −21.2%, the “Average percent inhibition versus negative control” value (HBV DNA [3]; ETV 0.001 μM) was 48.98% and the “Additive percent inhibition versus negative control” value (HBV DNA [3]; ETV 0.001 μM) was 48.98%. For the same compound, the “Average percent inhibition versus negative control” value (HBV DNA [3]; ETV 0.1 μM) was 85.09%, the “Additive percent inhibition versus negative control” value (HBV DNA [3]; ETV 0.1 μM) was 85.09% and the “Average percent inhibition versus negative control” value (HBV DNA [3]; ETV 1.0E−05 μM) was −88.53%. The “Additive percent inhibition versus negative control” value (HBV DNA [3]; ETV 1.0E−05 μM) was −88.53%, the “Average percent inhibition versus negative control” value (HBV DNA [3]; ETV 1.00E−06 μM) was −90.87% and the “Additive percent inhibition versus negative control” value (HBV DNA [3]; ETV 1.00E−06 μM) was −90.87%. The “Average percent inhibition versus negative control” value (HBV DNA [3]; ETV 3.16E−06 μM) was −90.2%, the “Additive percent inhibition versus negative control” value (HBV DNA [3]; ETV 3.16E−06 μM) was −90.2% and the “Average percent inhibition versus negative control” value (HBV DNA [3]; ETV 3.17E−05 μM) was −55.97%. The “Additive percent inhibition versus negative control” value (HBV DNA [3]; ETV 3.17E−05 μM) was −55.97%, the EC50 (HBV DNA [3]; Hepatitis B virus, HepG2.2.15, bDNA quantitation, read-out: Inhibitor A EC50) was 3.2 nM and the “AVERAGE % INHIBITION” value (HBsAg; ETV 0.00260 nM alone) was 4.92% and −1.45%. For the same compound, the “AVERAGE % INHIBITION” value (HBsAg; ETV 0.02300 nM alone) was 0.19% and −6.78% and the EC50 (HBsAg; Hepatitis B virus) was over 0.07 nM.
